Test system: endothelial cells (EA.hy926)
Assay: Transendothelial Electric Resistance (TER) assay of thrombin-induced endothelial barrier disruption
Format: cell-based
Conditions: peptide at 5 to 50 nM
Text: The bottom curve in each panel of the figure is labeled as IIa for thrombin alone and represents the observed effects for thrombin (IIa) in the absence of peptide. In each panel, IIa was always present for each peptide added. The number in each panel indicates the concentration of each peptide for the respective curves. The peptide concentration of 0 is represented by the bottom curve labeled “IIa”. (A) the dose response inhibition over time of TER, expressed by Normalized Cell Index (NCI) by the PAR1 derived peptide P1(47-66) or TR47 using concentrations between 5 and 50 nM. (B) the dose response inhibition over time of NCI by the PAR3-derived peptide P3(42-65) or P3R using a 5 to 50 nM concentration range. (C) The NCI dose response inhibition over time by the short sequence PAR1-derived peptide P1(47-55) using a range of concentrations between 50 nM and 100 μM peptide. (D) The NCI dose response inhibition over time by the short sequence PAR3-derived peptide P3(42-54) using a range of concentrations between 1 μM and 200 μM peptide. (E) The NCI dose response inhibition over time by the hybrid peptide G10 in which the P1(47-55) peptide described in panel C was linked to a PAR3 peptide P3(51-65) by using 10 Gly residues. In this case the range of concentrations to study the dose response inhibition was between 3 and 50 nM peptide. An estimate for the percentage of activity for each peptide dilution in presence of thrombin can be quantified by obtaining the Area under the Curve (AUC) for each peptide dilution in comparison to the value for the AUC for thrombin alone in the absence of any peptide. These values were used to calculate the potency of each PAR peptide.
Transendothelial Electric Resistance (TER)-based assays were used to monitor the disruption of endothelial barrier integrity caused by thrombin. The anti-inflammatory, vasculoprotective actions of different PAR peptides for protecting against thrombin-induced vascular leakage on cultured endothelial cells (EA.hy926) were followed in real time using an iCELLigence machine (ACEA Biosciences Inc, San Diego, Calif.). EA.hy926 cells at a density of 10,000/well were pipetted into the wells of gold-plated microelectrode sensor (L8, Acea Biosciences). Subsequently, the increase of electrical resistance was monitored as cells grew and spread out on the microelectrodes to obtain confluence (reaching a plateau) over the TER plates connected to the recording instrument that detected in real time the changes in TER for each well. The effects of different PAR-derived peptides at the indicated concentrations were tested for dose-response inhibition of thrombin's effects when each of the peptide dilutions was added 30 min prior to the addition of thrombin (0.25 nM final in all wells). The percentage of inhibition was proportional to the increase in TER signal over time. Cell index values, reflecting TER signals, were normalized prior to addition of thrombin following manufacturer's directions.

Sequence: GAPPNSFEEFPFSALEGWTGATIT [P3R, PAR3-derived 24-mer peptide]
- effect on thrombin-induced disruption of endothelial barrier: had no significant effect
